# Test results reported in paper PMC6591251, “Discovery of potent necroptosis inhibitors targeting RIPK1 kinase activity for the treatment of inflammatory disorder and cancer metastasis” (Cell Death & Disease, 2019).
# How the values were obtained:
# Experiment in all cases: RBC kinase panel
# Type in all cases: biochemical
# RAF1 = biological target: T1, RAF1 (Homo sapiens, UniProt P04049); settings: ATP 10 μM, Data1, Data2
# T1 construct: purchased Reaction Biology Corporation
# Procedure, shortened: (§1)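 In this selectivity screen, one compound concentration (1 μM) was applied to 369 human kinases, with duplicates and 10 μM ATP in each reaction.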
# RIPK2 = biological target: T2, RIPK2 (Homo sapiens, UniProt O43353); settings: ATP 10 μM, Data1, Data2
# T2 construct: purchased Reaction Biology Corporation
# Procedure, shortened: as §1
# LCK = biological target: T3, LCK (Homo sapiens, UniProt P06239); settings: ATP 10 μM, Data1, Data2
# T3 construct: purchased Reaction Biology Corporation
# Procedure, shortened: as §1
# CAMK1d = biological target: T4, CAMK1d (Homo sapiens, UniProt Q8IU85); settings: ATP 10 μM, Data1, Data2
# T4 construct: purchased Reaction Biology Corporation
# Procedure, shortened: as §1
# CK1g2 = biological target: T5, CK1g2 (Homo sapiens, UniProt P78368); settings: ATP 10 μM, Data1, Data2
# T5 construct: purchased Reaction Biology Corporation
# Procedure, shortened: as §1
# ITK = biological target: T6, ITK (Homo sapiens, UniProt Q08881); settings: ATP 10 μM, Data1, Data2
# T6 construct: purchased Reaction Biology Corporation
# Procedure, shortened: as §1
# ROS/ROS1 = biological target: T7, ROS/ROS1 (Homo sapiens, UniProt P08922); settings: ATP 10 μM, Data1, Data2
# T7 construct: purchased Reaction Biology Corporation
# Procedure, shortened: as §1
# EGFR = biological target: T8, EGFR (Homo sapiens, UniProt P00533); settings: ATP 10 μM, Data1, Data2
# T8 construct: purchased Reaction Biology Corporation
# Procedure, shortened: as §1
# RSK2 = biological target: T9, RSK2 (Homo sapiens, UniProt P51812); settings: ATP 10 μM, Data1, Data2
# T9 construct: purchased Reaction Biology Corporation
# Procedure, shortened: as §1
# NEK8 = biological target: T10, NEK8 (Homo sapiens, UniProt Q86SG6); settings: ATP 10 μM, Data1, Data2
# T10 construct: purchased Reaction Biology Corporation
# Procedure, shortened: as §1
# ERK5/MAPK7 = biological target: T11, ERK5/MAPK7 (Homo sapiens, UniProt Q13164); settings: ATP 10 μM, Data1, Data2
# T11 construct: purchased Reaction Biology Corporation
# Procedure, shortened: as §1
# SNARK/NUAK2 = biological target: T12, SNARK/NUAK2 (Homo sapiens, UniProt Q9H093); settings: ATP 10 μM, Data1, Data2
# T12 construct: purchased Reaction Biology Corporation
# Procedure, shortened: as §1
# ALK3/BMPR1A = biological target: T13, ALK3/BMPR1A (Homo sapiens, UniProt P36894); settings: ATP 10 μM, Data1, Data2
# T13 construct: purchased Reaction Biology Corporation
# Procedure, shortened: as §1
# ROCK1 = biological target: T14, ROCK1 (Homo sapiens, UniProt Q13464); settings: ATP 10 μM, Data1, Data2
# T14 construct: purchased Reaction Biology Corporation
# Procedure, shortened: as §1
# MKK4 = biological target: T15, MKK4 (Homo sapiens, UniProt P45985); settings: ATP 10 μM, Data1, Data2
# T15 construct: purchased Reaction Biology Corporation
# Procedure, shortened: as §1
# LIMK2 = biological target: T16, LIMK2 (Homo sapiens, UniProt P53671)
# T16 construct: purchased Reaction Biology Corporation
# Procedure, shortened: as §1
# NLK = biological target: T17, NLK (Homo sapiens, UniProt Q9UBE8); settings: ATP 10 μM, Data1, Data2
# T17 construct: purchased Reaction Biology Corporation
# Procedure, shortened: as §1
# HPK1/MAP4K1 = biological target: T18, HPK1/MAP4K1 (Homo sapiens, UniProt Q92918); settings: ATP 10 μM, Data1, Data2
# T18 construct: purchased Reaction Biology Corporation
# Procedure, shortened: as §1
# PKCiota = biological target: T19, PKCiota (Homo sapiens, UniProt P41743); settings: ATP 10 μM, Data1, Data2
# T19 construct: purchased Reaction Biology Corporation
# Procedure, shortened: as §1
# DCAMKL2 = biological target: T20, DCAMKL2 (Homo sapiens, UniProt Q8N568); settings: ATP 10 μM, Data1, Data2
# T20 construct: purchased Reaction Biology Corporation
# Procedure, shortened: as §1
# LCK2/ICK = biological target: T21, LCK2/ICK (Homo sapiens, UniProt Q9UPZ9); settings: ATP 10 μM, Data1, Data2
# T21 construct: purchased Reaction Biology Corporation
# Procedure, shortened: as §1
# MELK = biological target: T22, MELK (Homo sapiens, UniProt Q14680); settings: ATP 10 μM, Data1, Data2
# T22 construct: purchased Reaction Biology Corporation
# Procedure, shortened: as §1
# Aurora B = biological target: T23, Aurora B (Homo sapiens, UniProt Q96GD4); settings: ATP 10 μM, Data1, Data2
# T23 construct: purchased Reaction Biology Corporation
# Procedure, shortened: as §1
# SIK2 = biological target: T24, SIK2 (Homo sapiens, UniProt Q9H0K1); settings: ATP 10 μM, Data1, Data2
# T24 construct: purchased Reaction Biology Corporation
# Procedure, shortened: as §1
# MINK/MINK1 = biological target: T25, MINK/MINK1 (Homo sapiens, UniProt Q8N4C8); settings: ATP 10 μM, Data1, Data2
# T25 construct: purchased Reaction Biology Corporation
# Procedure, shortened: as §1
# CHK2 = biological target: T26, CHK2 (Homo sapiens, UniProt O96017); settings: ATP 10 μM, Data1, Data2
# T26 construct: purchased Reaction Biology Corporation
# Procedure, shortened: as §1
# PKCnu/PRKD3 = biological target: T27, PKCnu/PRKD3 (Homo sapiens, UniProt O94806); settings: ATP 10 μM, Data1, Data2
# T27 construct: purchased Reaction Biology Corporation
# Procedure, shortened: as §1
# MUSK = biological target: T28, MUSK (Homo sapiens, UniProt O15146); settings: ATP 10 μM, Data1, Data2
# T28 construct: purchased Reaction Biology Corporation
# Procedure, shortened: as §1
# TBK1 = biological target: T29, TBK1 (Homo sapiens, UniProt Q9UHD2); settings: ATP 10 μM, Data1, Data2
# T29 construct: purchased Reaction Biology Corporation
# Procedure, shortened: as §1
# DLK/MAP3K12 = biological target: T30, DLK/MAP3K12 (Homo sapiens, UniProt Q12852); settings: ATP 10 μM, Data1, Data2
# T30 construct: purchased Reaction Biology Corporation
# Procedure, shortened: as §1
# DYRK1B = biological target: T31, DYRK1B (Homo sapiens, UniProt Q9Y463); settings: ATP 10 μM, Data1, Data2
# T31 construct: purchased Reaction Biology Corporation
# Procedure, shortened: as §1
# MKK7 = biological target: T32, MKK7 (Homo sapiens, UniProt O14733); settings: ATP 10 μM, Data1, Data2
# T32 construct: purchased Reaction Biology Corporation
# Procedure, shortened: as §1
# MYLK3 = biological target: T33, MYLK3 (Homo sapiens, UniProt Q32MK0); settings: ATP 10 μM, Data1, Data2
# T33 construct: purchased Reaction Biology Corporation
# Procedure, shortened: as §1
# T16 sequence (P53671 whole entry): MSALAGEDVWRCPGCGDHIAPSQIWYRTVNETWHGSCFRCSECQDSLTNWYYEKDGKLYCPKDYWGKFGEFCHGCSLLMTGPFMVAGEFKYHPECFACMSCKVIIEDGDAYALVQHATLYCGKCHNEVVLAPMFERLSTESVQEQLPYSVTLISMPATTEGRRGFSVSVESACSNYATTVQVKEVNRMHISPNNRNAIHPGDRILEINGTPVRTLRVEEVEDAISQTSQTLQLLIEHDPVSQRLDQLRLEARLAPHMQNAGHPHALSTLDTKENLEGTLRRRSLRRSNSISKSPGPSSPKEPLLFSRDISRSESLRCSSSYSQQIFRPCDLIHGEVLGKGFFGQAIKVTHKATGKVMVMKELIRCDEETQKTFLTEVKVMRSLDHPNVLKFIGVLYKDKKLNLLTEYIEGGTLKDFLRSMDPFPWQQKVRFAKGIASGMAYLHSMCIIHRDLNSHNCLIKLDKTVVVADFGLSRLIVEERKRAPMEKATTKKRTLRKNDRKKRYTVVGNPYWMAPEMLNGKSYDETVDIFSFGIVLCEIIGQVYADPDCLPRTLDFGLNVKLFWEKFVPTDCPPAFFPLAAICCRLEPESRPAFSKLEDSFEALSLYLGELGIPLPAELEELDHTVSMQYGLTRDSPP
# T8 sequence (P00533 25-1210): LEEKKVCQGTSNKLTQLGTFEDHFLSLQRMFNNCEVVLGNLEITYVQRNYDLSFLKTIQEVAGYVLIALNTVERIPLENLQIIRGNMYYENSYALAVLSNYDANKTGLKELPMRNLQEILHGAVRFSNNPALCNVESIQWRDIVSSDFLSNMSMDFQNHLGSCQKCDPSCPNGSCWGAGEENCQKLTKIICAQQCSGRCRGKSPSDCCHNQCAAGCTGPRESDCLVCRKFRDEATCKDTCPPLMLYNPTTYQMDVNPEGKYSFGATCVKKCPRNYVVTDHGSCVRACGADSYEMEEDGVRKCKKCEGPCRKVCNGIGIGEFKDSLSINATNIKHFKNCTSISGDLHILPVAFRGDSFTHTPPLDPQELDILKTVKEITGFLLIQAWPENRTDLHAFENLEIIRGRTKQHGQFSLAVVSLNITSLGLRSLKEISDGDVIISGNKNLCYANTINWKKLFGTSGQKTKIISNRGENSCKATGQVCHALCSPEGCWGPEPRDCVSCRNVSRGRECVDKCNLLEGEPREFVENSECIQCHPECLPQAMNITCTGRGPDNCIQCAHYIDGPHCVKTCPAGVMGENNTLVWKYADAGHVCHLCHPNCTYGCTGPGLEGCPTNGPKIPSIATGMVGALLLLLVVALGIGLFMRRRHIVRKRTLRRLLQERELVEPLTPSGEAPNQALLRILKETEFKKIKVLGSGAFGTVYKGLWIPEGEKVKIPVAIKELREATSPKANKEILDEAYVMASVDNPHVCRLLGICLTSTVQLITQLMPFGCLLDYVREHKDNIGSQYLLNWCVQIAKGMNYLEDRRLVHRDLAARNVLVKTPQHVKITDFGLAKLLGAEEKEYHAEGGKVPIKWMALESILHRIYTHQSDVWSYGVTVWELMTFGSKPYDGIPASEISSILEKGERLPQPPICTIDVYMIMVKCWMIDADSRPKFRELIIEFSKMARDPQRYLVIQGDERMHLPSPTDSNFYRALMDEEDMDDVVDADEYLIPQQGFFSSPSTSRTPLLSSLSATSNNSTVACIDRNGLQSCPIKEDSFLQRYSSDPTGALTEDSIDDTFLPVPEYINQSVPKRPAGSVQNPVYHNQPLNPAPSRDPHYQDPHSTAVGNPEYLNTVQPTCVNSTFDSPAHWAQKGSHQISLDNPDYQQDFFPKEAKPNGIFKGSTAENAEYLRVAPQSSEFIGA
# T31 sequence (Q9Y463 whole entry): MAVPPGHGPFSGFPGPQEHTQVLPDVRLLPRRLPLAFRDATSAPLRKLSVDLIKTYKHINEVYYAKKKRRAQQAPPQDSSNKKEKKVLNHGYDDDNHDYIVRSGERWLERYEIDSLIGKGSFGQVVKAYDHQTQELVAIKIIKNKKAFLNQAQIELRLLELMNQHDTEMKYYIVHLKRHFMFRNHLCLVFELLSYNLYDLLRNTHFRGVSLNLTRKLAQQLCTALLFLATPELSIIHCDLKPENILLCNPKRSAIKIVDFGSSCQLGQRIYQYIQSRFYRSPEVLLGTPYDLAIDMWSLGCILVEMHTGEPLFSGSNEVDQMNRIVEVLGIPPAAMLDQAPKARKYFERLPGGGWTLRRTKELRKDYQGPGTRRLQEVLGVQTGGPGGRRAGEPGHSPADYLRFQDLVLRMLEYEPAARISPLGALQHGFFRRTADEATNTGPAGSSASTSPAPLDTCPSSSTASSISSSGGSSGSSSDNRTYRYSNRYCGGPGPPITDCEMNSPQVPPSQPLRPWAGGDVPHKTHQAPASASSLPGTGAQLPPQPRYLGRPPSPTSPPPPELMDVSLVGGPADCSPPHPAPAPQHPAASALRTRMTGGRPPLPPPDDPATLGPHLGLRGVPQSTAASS
# T22 sequence (Q14680 whole entry): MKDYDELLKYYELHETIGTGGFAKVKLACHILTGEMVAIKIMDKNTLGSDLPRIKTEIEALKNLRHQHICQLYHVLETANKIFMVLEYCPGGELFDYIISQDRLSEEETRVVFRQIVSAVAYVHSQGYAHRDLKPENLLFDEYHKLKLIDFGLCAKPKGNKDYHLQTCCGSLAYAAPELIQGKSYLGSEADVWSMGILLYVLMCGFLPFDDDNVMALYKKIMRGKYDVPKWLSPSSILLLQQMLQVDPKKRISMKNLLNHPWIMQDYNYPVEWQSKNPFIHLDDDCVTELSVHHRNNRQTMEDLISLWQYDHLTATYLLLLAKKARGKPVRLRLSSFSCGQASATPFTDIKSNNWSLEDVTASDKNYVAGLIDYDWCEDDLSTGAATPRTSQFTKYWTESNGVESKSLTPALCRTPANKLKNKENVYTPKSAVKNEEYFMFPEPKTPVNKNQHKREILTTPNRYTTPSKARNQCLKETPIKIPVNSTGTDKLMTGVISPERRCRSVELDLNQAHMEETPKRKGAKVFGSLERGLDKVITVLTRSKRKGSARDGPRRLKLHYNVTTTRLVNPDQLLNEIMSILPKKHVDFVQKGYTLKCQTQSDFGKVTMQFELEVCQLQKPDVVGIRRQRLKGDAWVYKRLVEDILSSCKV
# T14 sequence (Q13464 whole entry): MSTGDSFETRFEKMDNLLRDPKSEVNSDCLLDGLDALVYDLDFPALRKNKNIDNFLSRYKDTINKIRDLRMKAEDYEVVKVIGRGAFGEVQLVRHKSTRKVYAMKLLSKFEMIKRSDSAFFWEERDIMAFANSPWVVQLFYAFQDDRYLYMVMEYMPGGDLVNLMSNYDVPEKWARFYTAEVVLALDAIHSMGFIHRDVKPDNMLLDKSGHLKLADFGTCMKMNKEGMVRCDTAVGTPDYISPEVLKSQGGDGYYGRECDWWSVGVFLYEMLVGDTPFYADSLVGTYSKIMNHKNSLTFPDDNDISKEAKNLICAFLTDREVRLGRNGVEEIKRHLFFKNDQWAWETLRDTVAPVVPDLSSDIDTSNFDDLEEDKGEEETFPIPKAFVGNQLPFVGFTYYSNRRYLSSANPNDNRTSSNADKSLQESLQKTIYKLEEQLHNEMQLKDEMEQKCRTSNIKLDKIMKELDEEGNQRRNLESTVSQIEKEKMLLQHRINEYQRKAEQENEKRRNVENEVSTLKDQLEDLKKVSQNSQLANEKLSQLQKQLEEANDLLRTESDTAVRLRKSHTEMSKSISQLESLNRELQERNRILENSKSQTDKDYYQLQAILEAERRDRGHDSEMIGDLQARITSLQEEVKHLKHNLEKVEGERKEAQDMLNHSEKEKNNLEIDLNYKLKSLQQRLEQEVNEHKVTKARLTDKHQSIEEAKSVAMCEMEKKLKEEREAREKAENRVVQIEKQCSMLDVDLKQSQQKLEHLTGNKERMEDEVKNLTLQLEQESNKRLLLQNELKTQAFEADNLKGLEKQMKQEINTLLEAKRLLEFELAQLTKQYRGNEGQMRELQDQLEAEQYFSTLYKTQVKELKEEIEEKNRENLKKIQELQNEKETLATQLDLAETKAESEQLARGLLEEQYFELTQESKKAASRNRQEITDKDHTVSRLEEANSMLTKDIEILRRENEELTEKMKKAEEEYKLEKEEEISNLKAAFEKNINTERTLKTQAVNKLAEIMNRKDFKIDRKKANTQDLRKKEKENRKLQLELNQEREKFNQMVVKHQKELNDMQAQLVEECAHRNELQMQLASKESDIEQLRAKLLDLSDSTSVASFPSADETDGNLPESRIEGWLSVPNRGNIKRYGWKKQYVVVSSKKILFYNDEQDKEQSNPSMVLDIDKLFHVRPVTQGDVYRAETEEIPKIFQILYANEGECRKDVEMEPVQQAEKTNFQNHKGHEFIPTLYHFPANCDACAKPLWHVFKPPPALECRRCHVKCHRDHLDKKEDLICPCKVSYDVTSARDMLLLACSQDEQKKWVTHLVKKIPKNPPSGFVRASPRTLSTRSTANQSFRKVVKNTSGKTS
# T13 sequence (P36894 24-532): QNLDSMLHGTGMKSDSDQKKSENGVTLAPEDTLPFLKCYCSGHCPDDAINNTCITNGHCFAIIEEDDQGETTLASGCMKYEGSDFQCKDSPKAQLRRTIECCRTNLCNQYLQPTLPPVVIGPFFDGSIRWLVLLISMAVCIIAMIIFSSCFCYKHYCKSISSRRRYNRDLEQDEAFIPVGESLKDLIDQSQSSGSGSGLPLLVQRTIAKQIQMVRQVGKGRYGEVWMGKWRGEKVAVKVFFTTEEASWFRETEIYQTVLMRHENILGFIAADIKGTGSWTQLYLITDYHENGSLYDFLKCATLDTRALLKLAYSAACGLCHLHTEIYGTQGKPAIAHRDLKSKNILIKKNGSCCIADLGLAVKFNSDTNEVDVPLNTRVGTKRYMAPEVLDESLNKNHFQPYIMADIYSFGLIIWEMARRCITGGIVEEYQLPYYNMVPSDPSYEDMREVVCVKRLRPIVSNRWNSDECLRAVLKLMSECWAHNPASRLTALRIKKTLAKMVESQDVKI
smiles,measurement,setting,value
"CC(=O)Nc1nc2ccc(-c3cnc(C)c(NC(=O)OC4CCCCC4)c3)cc2s1 [PK68, cyclohexyl (5-(2-acetamidobenzo[d]thiazol-6-yl)-2-methylpyridin-3-yl)carbamate]",Activity%,RAF1; 1 μM,75.37%
same,activity at 1 µM,RAF1,76.1%
same,Activity%,RIPK2; 1 μM,85.19%
same,activity at 1 µM,RIPK2,91.2%
same,Activity%,LCK; 1 μM,62.75%
same,activity at 1 µM,LCK,62.9%
same,Activity%,CAMK1d; 1 μM,100.76%
same,activity at 1 µM,CAMK1d,103%
same,Activity%,CK1g2; 1 μM,96.19%
same,activity at 1 µM,CK1g2,97.8%
same,Activity%,ITK; 1 μM,88.47%
same,activity at 1 µM,ITK,88.6%
same,Activity%,ROS/ROS1; 1 μM,88.56%
same,activity at 1 µM,ROS/ROS1,88.9%
same,Activity%,EGFR; 1 μM,99.30%
same,activity at 1 µM,EGFR,99.7%
same,Activity%,RSK2; 1 μM,90.87%
same,activity at 1 µM,RSK2,92.3%
same,Activity%,NEK8; 1 μM,79.27%
same,activity at 1 µM,NEK8,79.9%
same,Activity%,ERK5/MAPK7; 1 μM,98.25%
same,activity at 1 µM,ERK5/MAPK7,99.3%
same,Activity%,SNARK/NUAK2; 1 μM,97.10%
same,activity at 1 µM,SNARK/NUAK2,98.7%
same,Activity%,ALK3/BMPR1A; 1 μM,103.05%
same,activity at 1 µM,ALK3/BMPR1A,105%
same,Activity%,ROCK1; 1 μM,99.31%
same,activity at 1 µM,ROCK1,101%
same,Activity%,MKK4; 1 μM,98.91%
same,activity at 1 µM,MKK4,99.1%
same,Activity%,"LIMK2; 1 μM, ATP 10 μM, Data1, Data2",42.64%
same,activity at 1 µM,"LIMK2; 1 μM, ATP 10 μM, Data1, Data2",44%
same,inhibition at 1 µM,LIMK2; at 1000 nM,> 50%
same,Activity%,NLK; 1 μM,98.89%
same,activity at 1 µM,NLK,103%
same,Activity%,HPK1/MAP4K1; 1 μM,98.32%
same,activity at 1 µM,HPK1/MAP4K1,101%
same,Activity%,PKCiota; 1 μM,92.87%
same,activity at 1 µM,PKCiota,97%
same,Activity%,DCAMKL2; 1 μM,99.58%
same,activity at 1 µM,DCAMKL2,100%
same,Activity%,LCK2/ICK; 1 μM,100.77%
same,activity at 1 µM,LCK2/ICK,101%
same,Activity%,MELK; 1 μM,100.40%
same,activity at 1 µM,MELK,102%
same,Activity%,Aurora B; 1 μM,83.50%
same,activity at 1 µM,Aurora B,83.7%
same,Activity%,SIK2; 1 μM,94.58%
same,activity at 1 µM,SIK2,95.5%
same,Activity%,MINK/MINK1; 1 μM,88.92%
same,activity at 1 µM,MINK/MINK1,90.2%
same,Activity%,CHK2; 1 μM,98.81%
same,activity at 1 µM,CHK2,99.1%
same,Activity%,PKCnu/PRKD3; 1 μM,101.06%
same,activity at 1 µM,PKCnu/PRKD3,102%
same,Activity%,MUSK; 1 μM,70.88%
same,activity at 1 µM,MUSK,75.9%
same,Activity%,TBK1; 1 μM,96.55%
same,activity at 1 µM,TBK1,97%
same,Activity%,DLK/MAP3K12; 1 μM,94.64%
same,activity at 1 µM,DLK/MAP3K12,103%
same,Activity%,DYRK1B; 1 μM,97.55%
same,activity at 1 µM,DYRK1B,99.4%
same,Activity%,MKK7; 1 μM,93.03%
same,activity at 1 µM,MKK7,98%
same,Activity%,MYLK3; 1 μM,100.10%
same,activity at 1 µM,MYLK3,101%
